Experimental findings from the Kinase Knowledgebase extract (Sharma et al. 2016) are described below.

Bounds are passed on as bounds.

The target of the first test is PIK3CA (human) (UniProt P42336). Put plainly: Inhibition of PIK3CA Kinase Activity.
PIK3CA (human), sequence (P42336 whole entry, looked up): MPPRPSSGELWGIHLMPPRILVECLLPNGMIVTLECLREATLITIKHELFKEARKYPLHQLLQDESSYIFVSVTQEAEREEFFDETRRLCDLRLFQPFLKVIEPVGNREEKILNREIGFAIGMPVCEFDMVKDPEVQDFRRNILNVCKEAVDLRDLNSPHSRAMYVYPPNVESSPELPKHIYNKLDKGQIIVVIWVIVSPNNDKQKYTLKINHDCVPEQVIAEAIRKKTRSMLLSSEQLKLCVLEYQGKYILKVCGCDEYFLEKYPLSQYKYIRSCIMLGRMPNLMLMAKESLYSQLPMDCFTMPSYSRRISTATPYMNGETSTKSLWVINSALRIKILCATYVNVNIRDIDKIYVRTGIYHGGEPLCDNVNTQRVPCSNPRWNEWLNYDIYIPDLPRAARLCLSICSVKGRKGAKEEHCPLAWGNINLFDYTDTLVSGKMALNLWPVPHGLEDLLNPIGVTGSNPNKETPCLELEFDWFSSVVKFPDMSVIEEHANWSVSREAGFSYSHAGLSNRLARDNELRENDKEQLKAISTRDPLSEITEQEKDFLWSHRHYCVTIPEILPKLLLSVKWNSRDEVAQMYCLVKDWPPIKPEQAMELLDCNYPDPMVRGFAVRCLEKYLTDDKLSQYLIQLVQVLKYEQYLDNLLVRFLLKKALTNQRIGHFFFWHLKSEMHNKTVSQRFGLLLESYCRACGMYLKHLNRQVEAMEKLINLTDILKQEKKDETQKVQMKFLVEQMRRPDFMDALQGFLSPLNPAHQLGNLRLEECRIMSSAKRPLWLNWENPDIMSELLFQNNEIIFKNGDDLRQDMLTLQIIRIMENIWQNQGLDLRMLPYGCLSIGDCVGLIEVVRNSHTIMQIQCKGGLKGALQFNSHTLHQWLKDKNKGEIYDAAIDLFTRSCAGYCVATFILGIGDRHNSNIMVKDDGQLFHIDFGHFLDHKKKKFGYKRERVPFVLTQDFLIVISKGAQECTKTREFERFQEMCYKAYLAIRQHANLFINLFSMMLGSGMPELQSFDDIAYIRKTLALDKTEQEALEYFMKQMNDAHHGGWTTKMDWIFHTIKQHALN
Conditions: not given
Take `CNC(=O)Nc1ccc(-c2nc(N3CC4CCC(C3)O4)c3cnn([C@H]4CC[C@H](O)CC4)c3n2)cc1`: the IC50 was 882 nM. That is a sub-micromolar value.

`NCc1cccc(C(=O)Nc2cccc(-c3nc(-c4cccc(CO)c4)cc(N4CCOCC4)n3)c2)c1`: the 50% inhibitory concentration (IC50) is 1000 nM.

Turning to `COC[C@H]1OC(=O)c2coc3c2[C@@]1(C)C1=C(C3=O)[C@@H]2CC[C@H](C(=O)OCN(C)c3ccc([N+](=O)[O-])c4nonc34)[C@@]2(C)C[C@H]1OC(C)=O`, the 50% inhibitory concentration (IC50) came out at 225 nM.

`CN[C@H](C)c1ccc(S(=O)(=O)Nc2cc(-c3ccc4nc(NC(C)=O)cn4n3)cnc2Cl)cc1` registered a concentration for half-maximal inhibition (IC50) of 6 nM.

Turning to `O=C1Nc2ccccc2C(=C1)Oc3cccc(NCC4=CN(=CC=C4)[BH2-]C#N)c3`, the half-inhibitory concentration (IC50) worked out at 7380 nM.

`CN(C)c1ccc2c(COC(=O)[C@@H]3CC(=O)c4coc5c4[C@@]3(C)c3ccc4c(c3C5=O)CCC4=O)cc(=O)oc2c1` had an IC50 of 1.9 nM.

As for `O=c1cc(Oc2cccc(NCc3ccc4[nH]ccc4c3)c2)c2ccccc2[nH]1`, the IC50 was found to be 3420 nM.

In turn, `CN(C)CCCN1CCN(c2cccc(Oc3cc(=O)[nH]c4ccccc34)c2)CC1` displayed an IC50 of 10000 nM. Compared with the last molecule, the IC50 is about 2.9-fold higher.

For `CC(=O)N1CCC(n2ncc3c(N4CCOCC4)nc(-c4cccc(O)c4)nc32)CC1`, the IC50 is 69 nM.

`CNC(=O)Nc1ccc(-c2nc(N3CC4CCC(C3)O4)c3cnn([C@H]4CC[C@H](OC)CC4)c3n2)cc1`: the IC50 worked out at 1170 nM.

Take `O=C1NCc2cncc(c2)-c2ncnc3c2SC(=C3)c2cncc(c2)NS(=O)(=O)c2cccc1c2`: the IC50 was determined as 44 nM. This IC50 lies about 27-fold lower than the previous one.

`CC(C)(C)OC(=O)n1ccc2cc(CNc3cccc(Oc4cc(=O)[nH]c5ccccc45)c3)ccc21` showed an IC50 of 11800 nM.

`COc1ncc2cc1NS(=O)(=O)c1cccc(c1)C(=O)NCC(=O)NCc1cncc(c1)-c1cnc3sc-2nn13` came in with an IC50 of 100 to 1000 nM.

As to `COC[C@H]1OC(=O)c2coc3c2[C@@]1(C)C1=C(C3=O)[C@@H]2CCC(=O)[C@@]2(C)C[C@H]1C(=O)OCN(C)c1ccc([N+](=O)[O-])c2nonc12`, the IC50 is 0.7 nM.

In turn, `N[C@H]1CCC[C@@H](CC(=O)Nc2cccc(-c3nc(-c4cccc(CO)c4)cc(N4CCOCC4)n3)c2)C1` returned an IC50 of 700 nM.

Consider `Oc1cccc(-c2nc(N3CCOCC3)c3sccc3n2)c1`, for which the IC50 amounted to 2 nM.

In turn, `c1ccc(CN2CCC(n3ncc4c(N5CCOCC5)nc(-c5cc6ccccc6[nH]5)nc43)CC2)cc1` displayed a half-maximal inhibitory concentration (IC50) of 1110 nM.

Turning to `CN1CCC(Nc2cccc(-c3cccc(Oc4cc(=O)[nH]c5ccccc45)c3)c2)CC1`, the IC50 is 8310 nM.

With `C[C@]12C(=C(O)C(=O)c3c1ccc1c3CCC1=O)/C(=C/NCC(=O)O)C(=O)C[C@H]2OC(=O)CCC(=O)O`, the half-maximal inhibitory concentration (IC50) turned out to be 44 nM.

With `COc1ccccc1C1C2=C(CC(C)(C)CC2=O)Nc2c1c(C(C)(C)C)nn2-c1ccc(Cl)c(Cl)c1` (centres undefined), the concentration for half-maximal inhibition (IC50) was 7000 nM.

Molecule `COc1ncc2cc1NS(=O)(=O)c1ccc(F)c(c1)C(=O)NCc1cncc(c1)-c1ccnc3c1SC2=C3` had a 50% inhibitory concentration (IC50) of 15 nM. Against the preceding molecule, the IC50 is about 470-fold lower.

As to `COc1ccc(-c2c[nH]c3ncc(-c4cncc(NS(=O)(=O)c5ccc(F)cc5F)c4)cc23)cc1OC`, the IC50 was 3 nM.

`c1cc(-c2nc(N3CCOCC3)c3sccc3n2)c2cn[nH]c2c1` displayed a 50% inhibitory concentration (IC50) of 40 nM.

In turn, `Cc1ccc([N+](=O)[O-])cc1S(=O)(=O)n1ccc(-c2c(C)nc3ccc(Br)cn23)n1` displayed an IC50 of 3 nM.

As for `C(#Cc1n[nH]c2ncccc12)c1ccccn1`, the concentration for half-maximal inhibition (IC50) is 9000 nM.

The molecule `CN(COC(=O)[C@@H]1CC(=O)c2coc3c2[C@@]1(C)c1ccc2c(c1C3=O)CCC2=O)c1ccc([N+](=O)[O-])c2nonc12` displayed an IC50 of 9.6 nM.

For the molecule `COc1ccc2c(c1)c(C=C1Oc3cc(O)cc(O)c3C1=O)c(C)n2CCCN(C)C`, the half-inhibitory concentration (IC50) was 5 nM.

`COC[C@H]1OC(=O)c2coc3c2[C@@]1(C)C1=C(C3=O)[C@@H]2CC[C@H](C(=O)OCc3cc(=O)oc4cc(N(C)C)ccc34)[C@@]2(C)C[C@H]1OC(C)=O` returned an IC50 of 695 nM.

For `N#Cc1cccc(-c2c[nH]c3ncc(-c4cnc(N)c(S(=O)(=O)N5CCOCC5)c4)cc23)c1`, the concentration for half-maximal inhibition (IC50) worked out at 130 nM.

`C=CCN(/C=C1/C(=O)O[C@H](COC)[C@@]2(C)C1=C(O)C(=O)C1=C2[C@H](OC(C)=O)C[C@]2(C)C(=O)CCC12)CC=C` (some centres undefined) returned an IC50 of 0.5 nM.

`COc1ccc(-c2c[nH]c3ncc(-c4cncc(NS(=O)(=O)c5ccccc5)c4)cc23)cc1OC` displayed an IC50 of 1600 nM.

For `CC1(C)CC(=O)C2=C(C1)Nc1c(c(C3CCCCC3)nn1-c1cccc(F)c1)C2c1ccc(C(F)(F)F)cc1` (centres undefined), the IC50 was determined as 8000 nM.

With `CC(=O)c1c[nH]c2ncc(-c3cnc(N)c(S(=O)(=O)N4CCOCC4)c3)cc12`, the IC50 came to 730 nM.

On to `CN(C)CC=CC(=O)Nc1cccc(-c2cccc(Oc3cc(=O)[nH]c4ccccc34)c2)c1`, for which the IC50 stood at 12000 nM.

Regarding `NC(=O)C1CCN(c2cccc(-c3nc(-c4cccc(O)c4)cc(N4CCOCC4)n3)c2)CC1`, the IC50 came out at 1000 nM.

As to `COc1ncc(-c2nn3c(-c4ccnnc4)cnc3s2)cc1NS(=O)(=O)c1ccc(F)cc1F`, the half-maximal inhibitory concentration (IC50) was under 100 nM.

Take `CNC(=O)Nc1ccc(-c2nc(N3CC4CCC(C3)O4)c3cnn([C@H]4CC[C@@H](O)CC4)c3n2)cc1`: the IC50 came out at 227 nM.

`O=C(Nc1ccc(C(=O)NCCN2CCCC2)cc1)Nc1ccc(-c2nc(O[C@H]3CCOC3)nc(N3CCOCC3)n2)cc1` yielded an IC50 of 1.4 nM. Compared with the last molecule, the IC50 is about 160-fold lower.

As to `CC(C)(C)CNc1ncccc1CNc1cccc(Oc2cc(=O)[nH]c3ccccc23)c1`, the half-inhibitory concentration (IC50) worked out at 10000 nM. Compared with the last molecule, the IC50 is about 7100-fold higher.

`Nc1ncc(-c2ccc3nccc(-c4ccncc4)c3c2)cc1S(=O)(=O)Nc1ccc(F)cc1F` registered a concentration for half-maximal inhibition (IC50) of 1.2 nM.

Turning to `COc1ncc2cc1NS(=O)(=O)c1cccc(c1)C(=O)NCCN1CC=C(CC1)c1cnn3ccc-2nc13`, the IC50 came to 20 nM.

In turn, `COc1ccc2c(c1)c(C=C1Oc3cc(O)cc(O)c3C1=O)c(C)n2CCCN1CCN(CCO)CC1` registered an IC50 of 7 nM.

A further test addresses MAPK14 (human) (UniProt Q16539). Put plainly: Inhibition of MAPK14 Kinase Activity.
Conditions: not given
`CS(=O)(=O)N1CCC(Nc2ncc3cc(Oc4ccc(F)cc4F)ncc3n2)CC1` yielded an IC50 of under 50 nM.

For the molecule `CC(C)Nc1ncc2cc(Oc3ccc(F)cc3F)ncc2n1`, the half-maximal inhibitory concentration (IC50) is under 500 nM.

For a further test, the target named is CDK2 (human) (UniProt P24941). Put plainly: Enzyme Assay. To be noted: concentration not given here.
For `O=S(=O)(c1cccc2cnccc12)N1CCCNCC1`, the inhibition is 18%.

The next test deals with MAPK14 (human) (UniProt Q16539). Put plainly: Assessment of MAPK14 Kinase Activity.
MAPK14 (human), sequence (Q16539 whole entry, looked up): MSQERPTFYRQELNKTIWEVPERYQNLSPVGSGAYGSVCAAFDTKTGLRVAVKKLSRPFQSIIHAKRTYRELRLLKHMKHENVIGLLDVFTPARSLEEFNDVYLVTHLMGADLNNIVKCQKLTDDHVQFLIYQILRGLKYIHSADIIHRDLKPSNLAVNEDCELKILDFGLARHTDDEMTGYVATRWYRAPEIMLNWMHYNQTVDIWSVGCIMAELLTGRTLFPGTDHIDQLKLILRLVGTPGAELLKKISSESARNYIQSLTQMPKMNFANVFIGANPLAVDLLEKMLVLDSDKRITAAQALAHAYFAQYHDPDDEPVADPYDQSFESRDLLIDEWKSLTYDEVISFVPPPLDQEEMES
Conditions: not given
Take `CS(=O)(=O)N1CCC(Nc2ncc3cc(Oc4ccc(F)cc4F)ncc3n2)CC1`: the half-inhibitory concentration (IC50) is under 50 nM.

Take `CC(C)Nc1ncc2cc(Oc3ccc(F)cc3F)ncc2n1`: the IC50 is under 500 nM.

The molecule `CSc1nc(-c2ccc(F)cc2)c(-c2ccnc(NC(C)C(C)(C)C)c2)[nH]1` (centres undefined) registered an IC50 of 23 nM.

With `Oc1cc(-c2nc(-c3ccccc3)[nH]c2-c2ccncc2)ccc1Cl`, the IC50 amounted to 0.1 nM.

`Cc1c(NC(=O)c2cc(F)cc(N3CCOCC3)c2)sc(CN2CCOCC2)c1Cl` came in with an IC50 of under 5000 nM.

For the molecule `Cc1ccc(C(=O)NC2CC2)cc1Nc1nc(-c2cccc(CN)c2)c(C(=O)NCc2ccccc2)s1`, the IC50 is under 50 nM.

On to `Cc1ccc(C(=O)NC2CC2)cc1Nc1nc(-c2ccccc2)cs1`, for which the half-inhibitory concentration (IC50) is over 100 nM.

`CON=C(c1ccccc1)c1cnn(-c2ccccc2)c1N` gave a 50% inhibitory concentration (IC50) of over 100000 nM.

Molecule `Fc1cc(-c2[nH]c(SCc3ccccc3)nc2-c2cccc(C(F)(F)F)c2)ccn1` registered an IC50 of 2950 nM.

For `CC[C@@H](NC(=O)c1cn2ncnc(Nc3cc(NC(=O)c4cccc(N5CCOCC5)c4)ccc3C)c2c1C)OC`, the concentration for half-maximal inhibition (IC50) worked out at 12 nM. Compared with the last molecule, the IC50 is about 250-fold lower.

As to `Cc1n[nH]c(C)c1-c1nncc2nc(Nc3ccc(F)cc3F)ccc12`, the IC50 was 1.6 nM.

For `Cc1cccc(Nc2c(C(=O)N3CCNCC3)sc3c2ccc(=O)n3-c2c(F)cccc2F)n1`, the concentration for half-maximal inhibition (IC50) was in the range of 5 to 500 nM.

The test is the same for the next values; noted with them: concentration not given here.
Consider `O=S(=O)(c1cccc2cnccc12)N1CCCNCC1`, for which the inhibition was -8%.

In the case of `Cc1cncc2cccc(S(=O)(=O)N3CCCNC[C@@H]3C)c12`, the inhibition was -9%.
